PubChem BioAssay (NCI)
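Cells were grown in 96-well plates and exposed to each compound for 48 hours at five concentrations; endpoints were interpolated linearly between bracketing concentrations, or set to the highest concentration if not reached. Abbreviation: GI50, concentration required for 50% inhibition of growth. Definition used: TGI = concentration required for complete inhibition of growth.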

Key:
Test in all cases: NCI tumour cell line growth inhibition, 48 h
A498 renal = system: A498 renal
OVCAR-5 ovarian = system: OVCAR-5 ovarian
NCI-H226 lung = system: NCI-H226 lung
HT29 colon = system: HT29 colon
SNB-75 CNS = system: SNB-75 CNS
HOP-62 NSCLC = system: HOP-62 NSCLC
TK-10 renal = system: TK-10 renal
OVCAR-4 ovarian = system: OVCAR-4 ovarian
OVCAR-3 ovarian = system: OVCAR-3 ovarian
SK-MEL-28 melanoma = system: SK-MEL-28 melanoma

SMILES: COc1ccc(C(=O)Cc2cc(OC)ccc2OC)cc1
- TGI (A498 renal): > 100 µM
- TGI (OVCAR-5 ovarian): > 100 µM
- TGI (NCI-H226 lung): > 100 µM
- TGI (HT29 colon): > 100 µM
- TGI (SNB-75 CNS): 60.1 µM
- TGI (HOP-62 NSCLC): > 100 µM
- TGI (TK-10 renal): > 100 µM
- TGI (OVCAR-4 ovarian): > 100 µM
- TGI (OVCAR-3 ovarian): > 100 µM

SMILES: CC(C)=CCN(N=O)c1ncnc2nc[nH]c12
- TGI (SK-MEL-28 melanoma): > 100 µM
- TGI (A498 renal): > 100 µM
- TGI (OVCAR-5 ovarian): > 100 µM
- TGI (NCI-H226 lung): > 100 µM
- TGI (HT29 colon): > 100 µM
- TGI (SNB-75 CNS): > 100 µM
- TGI (HOP-62 NSCLC): > 100 µM
- TGI (TK-10 renal): > 100 µM
- TGI (OVCAR-4 ovarian): > 100 µM
- TGI (OVCAR-3 ovarian): > 100 µM

SMILES: COc1ccccc1C1C(C#N)=C(N)OC2=C1C(=O)CCC2 (configuration not stated)
- GI50 (SK-MEL-28 melanoma): > 100 µM
- TGI (SK-MEL-28 melanoma): > 100 µM
- GI50 (A498 renal): > 100 µM
- TGI (A498 renal): > 100 µM
- GI50 (OVCAR-5 ovarian): > 100 µM
- TGI (OVCAR-5 ovarian): > 100 µM
- GI50 (NCI-H226 lung): 74.2 µM
- TGI (NCI-H226 lung): > 100 µM
- GI50 (HT29 colon): > 100 µM
- TGI (HT29 colon): > 100 µM
- GI50 (SNB-75 CNS): > 100 µM
- TGI (SNB-75 CNS): > 100 µM
- GI50 (HOP-62 NSCLC): > 100 µM
- TGI (HOP-62 NSCLC): > 100 µM
- GI50 (TK-10 renal): > 100 µM
- TGI (TK-10 renal): > 100 µM
- GI50 (OVCAR-4 ovarian): > 100 µM
- TGI (OVCAR-4 ovarian): > 100 µM
- GI50 (OVCAR-3 ovarian): > 100 µM
- TGI (OVCAR-3 ovarian): > 100 µM

SMILES: CCCCc1ccc2[n+](c1)C(C(=O)OCC)=PC2 (configuration not stated)
- TGI (SK-MEL-28 melanoma): > 100 µM
- TGI (A498 renal): > 100 µM
- TGI (OVCAR-5 ovarian): > 100 µM
- TGI (HT29 colon): > 100 µM
- TGI (SNB-75 CNS): > 100 µM
- TGI (HOP-62 NSCLC): > 100 µM
- TGI (TK-10 renal): > 100 µM
- TGI (OVCAR-4 ovarian): > 100 µM
- TGI (OVCAR-3 ovarian): > 100 µM

SMILES: O=C1c2ccccc2-c2ccc(NC(=O)C3CCCCC3C(=O)O)cc21 (configuration not stated)
- TGI (SK-MEL-28 melanoma): > 100 µM
- TGI (A498 renal): > 100 µM
- TGI (OVCAR-5 ovarian): > 100 µM
- TGI (NCI-H226 lung): > 100 µM
- TGI (HT29 colon): > 100 µM
- TGI (SNB-75 CNS): > 100 µM
- TGI (HOP-62 NSCLC): > 100 µM
- TGI (TK-10 renal): > 100 µM
- TGI (OVCAR-4 ovarian): > 100 µM
- TGI (OVCAR-3 ovarian): > 100 µM

SMILES: O=CNc1cccc2c3c([nH]c12)CCCCCC3
- TGI (SK-MEL-28 melanoma): > 100 µM
- TGI (A498 renal): > 100 µM
- TGI (OVCAR-5 ovarian): > 100 µM
- TGI (NCI-H226 lung): > 100 µM
- TGI (HT29 colon): > 100 µM
- TGI (SNB-75 CNS): > 100 µM
- TGI (HOP-62 NSCLC): > 100 µM
- TGI (OVCAR-4 ovarian): > 100 µM
- TGI (OVCAR-3 ovarian): > 100 µM

SMILES: C=C1C(=O)O[C@H]2C1[C@H](OC(=O)/C(C)=C\COC(C)=O)C[C@]1(CO1)[C@@H]1[C@H](O)[C@H]3O[C@@]3(C)[C@@H]12 (some centres not stated)
- TGI (SK-MEL-28 melanoma): 31.7 µM
- TGI (A498 renal): 99 µM
- TGI (OVCAR-5 ovarian): > 100 µM
- TGI (NCI-H226 lung): 78.1 µM
- TGI (HT29 colon): 40.8 µM
- TGI (SNB-75 CNS): > 96.2 µM
- TGI (HOP-62 NSCLC): > 100 µM
- TGI (OVCAR-4 ovarian): > 77.3 µM
- TGI (OVCAR-3 ovarian): 44.8 µM

SMILES: COC(=O)C(C)N1C(=O)c2ccccc2I1OC(C)=O (configuration not stated)
- GI50 (SK-MEL-28 melanoma): 88 µM
- TGI (SK-MEL-28 melanoma): > 100 µM
- GI50 (OVCAR-5 ovarian): > 100 µM
- TGI (OVCAR-5 ovarian): > 100 µM
- GI50 (NCI-H226 lung): > 100 µM
- TGI (NCI-H226 lung): > 100 µM
- GI50 (HT29 colon): 26.3 µM
- TGI (HT29 colon): 97.5 µM
- GI50 (SNB-75 CNS): 60.8 µM
- TGI (SNB-75 CNS): > 100 µM
- GI50 (TK-10 renal): 29.2 µM
- TGI (TK-10 renal): > 100 µM
- GI50 (OVCAR-4 ovarian): 51.3 µM
- TGI (OVCAR-4 ovarian): > 100 µM
- GI50 (OVCAR-3 ovarian): 23.3 µM
- TGI (OVCAR-3 ovarian): > 100 µM

SMILES: CCOC(=O)C1C(c2cc(OC)c(O)c(OC)c2)c2cc3c(cc2OC1(C)O)OCO3 (configuration not stated)
- TGI (SK-MEL-28 melanoma): > 100 µM
- TGI (HT29 colon): > 100 µM
- TGI (SNB-75 CNS): 77.9 µM
- TGI (HOP-62 NSCLC): > 100 µM
- TGI (TK-10 renal): > 100 µM
- TGI (OVCAR-4 ovarian): > 100 µM
- TGI (OVCAR-3 ovarian): > 100 µM

SMILES: COc1cc(N=Nc2cccc(S(=O)(=O)O)c2)c(C)cc1N=Nc1ccc(/C=C/c2ccc(N=[N+]([O-])c3ccc(/C=C/c4ccc(N=Nc5cc(C)c(N=Nc6cccc(S(=O)(=O)O)c6)cc5OC)cc4)c(S(=O)(=O)O)c3)cc2S(=O)(=O)O)cc1
- TGI (SK-MEL-28 melanoma): > 100 µM
- TGI (A498 renal): > 100 µM
- TGI (OVCAR-5 ovarian): > 100 µM
- TGI (NCI-H226 lung): > 100 µM
- TGI (HT29 colon): > 100 µM
- TGI (SNB-75 CNS): > 100 µM
- TGI (HOP-62 NSCLC): > 100 µM
- TGI (OVCAR-4 ovarian): > 100 µM
- TGI (OVCAR-3 ovarian): > 100 µM

SMILES: Cc1cc(NS(=O)(=O)c2ccc(Nc3c4ccccc4nc4c(C(=O)NCCN(C)C)ccc(Cl)c34)cc2)no1
- TGI (SK-MEL-28 melanoma): 16.1 µM
- TGI (OVCAR-5 ovarian): 28.5 µM
- TGI (NCI-H226 lung): 4.57 µM
- TGI (HT29 colon): 14.4 µM
- TGI (SNB-75 CNS): 11.9 µM
- TGI (HOP-62 NSCLC): 17.3 µM
- TGI (TK-10 renal): 27.1 µM
- TGI (OVCAR-4 ovarian): 17.6 µM
- TGI (OVCAR-3 ovarian): 23.9 µM
